Laboratory results from patent US5472966A, “Antidepressant heteroarylaminoalkyl derivatives of naphthyl-monazines” (Bristol-Myers Squibb Company, priority 1995, dated 1995).
Counter-ions that a name gives are not always drawn.

Test system: serotonin re-uptake (synaptosomal re-uptake of tritiated serotonin)
Assay: Inhibition of synaptosomal re-uptake of tritiated serotonin
Format: biochemical
Conditions: in vitro; nM of test compound that inhibits uptake by 50%; read-out: SUI (Serotonin Uptake Inhibition potency), in vitro IC50
Protocol: Determination of endogenous monoaminergic re-uptake inhibition values for serotonin was accomplished using test methods described by P. Skolnick, et al., Br. J. Pharmacology, (1985), 86, pp. 637-644; with only minor modifications. In vitro IC50 (nM) test values were determined for representative compounds of Formula I based on their inhibition of synaptosomal re-uptake of tritiated serotonin. Test data IC50 values lower than 500 nM are considered to reflect activity as an inhibitor of serotonin re-uptake.

Row | SMILES | IC50
1 | COc1cccnc1N(C)CCCN1CC=C(c2cccc3ccccc23)CC1 [Example 14, 3,6-dihydro-N-(3-methoxy-2-pyridinyl)-N-methyl-4-(1-naphthalenyl)-1(2H)-pyridinepropanamine fumarate] | < 100 nM
2 | CCOc1cccnc1N(C)CCCN1CC=C(c2cccc3ccccc23)CC1 [Example 15, 3,6-dihydro-N-(3-ethoxy-2-pyridinyl)-N-methyl-4-(1-naphthalenyl)-1(2H)-pyridinepropanamine fumarate] | < 100 nM
3 | CN(CCCN1CC=C(c2cccc3ccccc23)CC1)c1cc(C(F)(F)F)ccn1 [Example 16, 3,6-dihydro-N-methyl-N-(4-trifluoromethyl-2-pyridinyl)-4-(1-naphthalenyl)-1(2H)-pyridinepropanamine fumarate] | < 100 nM
4 | CN(CCCN1CC=C(c2cccc3ccccc23)CC1)c1ccc(Cl)cn1 [Example 17, 3,6-dihydro-N-methyl-N-(5-chloro-2-pyridinyl)-4-(1-naphthalenyl)-1(2H)-pyridinepropanamine fumarate] | < 10 nM
5 | CN(CCCN1CC=C(c2cccc3ccccc23)CC1)c1cccc(C(F)(F)F)n1 [Example 18, 3,6-dihydro-N-methyl-N-(6-trifluoromethyl-2-pyridinyl)-4-(1-naphthalenyl)-1(2H)-pyridinepropanamine fumarate] | < 100 nM
6 | CN(CCCN1CC=C(c2cccc3ccccc23)CC1)c1cc(Cl)ccn1 [Example 19, 3,6.dihydro-N-methyl-N-(4-chloro-2-pyridinyl)-4-(1-naphthalenyl)-1(2H)-pyridinepropanamine] | < 100 nM
7 | CN(CCCN1CC=C(c2cccc3ccccc23)CC1)c1ccnc(Cl)c1 [Example 20, 3,6-dihydro-N-methyl-N-(2-chloro-4-pyridinyl)-4-(1-naphthalenyl)-1(2H)-pyridinepropanamine fumarate] | < 10 nM
8 | COc1cncnc1N(C)CCCN1CC=C(c2cccc3ccccc23)CC1 [Example 21, 3,6-dihydro-N-(5-methoxy-4-pyrimidinyl)-N-methyl-4-(1-naphthalenyl)-1(2H)-pyridinepropanamine fumarate] | < 10 nM
9 | CCN(CCCN1CC=C(c2cccc3ccccc23)CC1)c1ncncc1OC [Example 22, 3,6-dihydro-N-(5-methoxy-4-pyrimidinyl)-N-ethyl-4-(1-naphthalenyl)-1(2H)-pyridinepropanamine fumarate] | < 10 nM
10 | COc1ccc2cccc(C3=CCN(CCCNc4ncncc4OC)CC3)c2c1 [Example 23, 3,6-dihydro-4-(7-methoxy-1-naphthalenyl)-N-(5-methoxy-4-pyrimidinyl)-1(2H)-pyridinepropanamine fumarate] | < 100 nM
11 | COc1cncnc1NCCCN1CC=C(c2cccc3ccc(F)cc23)CC1 [Example 24, 3,6-dihydro-4-(7-fluoro-1-naphthalenyl)-N-(5-methoxy-4-pyrimidinyl-1(2H)-pyridinepropanamine fumarate] | < 500 nM
12 | COc1cncnc1NCCCN1CC=C(c2cccc3ccc(Cl)cc23)CC1 [Example 25, 3,6-dihydro-4-(7-chloro-1-naphthalenyl)-N-(5-methoxy-4-pyrimidinyl)-1(2H)-pyridinepropanamine fumarate] | < 500 nM
13 | COc1cncnc1NCCN1CC=C(c2cccc3ccccc23)CC1 [Example 26, 3.6-dihydro-4-(1-naphthalenyl)-N-(5-methoxy-4-pyrimidinyl)-1(2H)-pyridineethanamine fumarate] | < 100 nM
14 | COc1cncnc1NCCCN1CC=C(c2cccc3ccccc23)CC1 [Example 27, 3.6-dihydro-4-(1-naphthalenyl)-N-(5-methoxy-4-pyrimidinyl)-1(2H)-pyridinepropanamine hydrochloride] | < 10 nM
15 | CCOc1cncnc1NCCCN1CC=C(c2cccc3ccccc23)CC1 [Example 28, 3,6-dihydro-4-(1-naphthalenyl)-N-(5-ethoxy-4-pyrimidinyl)-1-(2H)-pyridinepropanamine fumarate] | < 10 nM
16 | COc1cnccc1NCCCN1CC=C(c2cccc3ccccc23)CC1 [Example 29, 3,6-dihydro:4-(1-naphthalenyl)-N-(3-methoxy-4-pyridinyl)-1(2H)-pyridinepropanamine fumarate] | < 100 nM
17 | Clc1nccnc1NCCCN1CC=C(c2cccc3ccccc23)CC1 [Example 30, 3,6-dihydro-4-(1-naphthalenyl)-N-(3-chloro-2-pyrazinyl)-1(2H)-pyridinepropanamine fumarate] | < 10 nM
18 | COc1nccnc1NCCCN1CC=C(c2cccc3ccccc23)CC1 [Example 31, 3,6-dihydro-4-(1-naphthalenyl)-N-(3-methoxy-2-pyrazinyl)-1(2H)-pyridinepropanamine fumarate] | < 10 nM
19 | COc1cncnc1NCCCCN1CC=C(c2cccc3ccccc23)CC1 [Example 32, 3,6-dihydro-N-(5-methoxy-4-pyrimidinyl)-4-(1-naphthalenyl)-1(2H)-pyridinebutanamine fumarate] | < 100 nM
20 | COc1cccnc1NCCCN1CC=C(c2cccc3ccccc23)CC1 [Example 33, 3,6-dihydro-N-(3-methoxy-2-pyridinyl)-4-(1-naphthalenyl)-1(2H)pyridinepropanamine fumarate] | < 10 nM
21 | CCOc1cccnc1NCCCN1CC=C(c2cccc3ccccc23)CC1 [Example 34, 3,6-dihydro-N-(3-ethoxy-2-pyridinyl)-4-(1-naphthalenyl)-1(2H)-pyridinepropanamine fumarate] | < 10 nM
22 | FC(F)(F)c1cccc(NCCCN2CC=C(c3cccc4ccccc34)CC2)n1 [Example 35, 3,6-dihydro-N-(6-trifluoromethyl-2-pyridinyl)-4-(1-napthalenyl)-1(2H)-pyridinepropanamine fumarate] | < 100 nM
23 | Clc1ccc(NCCCN2CC=C(c3cccc4ccccc34)CC2)nc1 [Example 36, 3,6-dihydro-N-(5-chloro-2-pyridinyl)-4-(1-naphthalenyl)-1(2H)-pyridinepropanamine fumarate] | < 10 nM
24 | FC(F)(F)c1ccnc(NCCCN2CC=C(c3cccc4ccccc34)CC2)c1 [Example 37, 3,6dihydro-N-(4-trifluromethyl-2-pyridinyl)-4-(1-napthalenyl-1(2H)-pyridinepropanamine fumarate] | < 100 nM
25 | COc1cncnc1NCCCN1CCC(c2cccc3ccccc23)CC1 [Example 38, 4-(1-naphthalenyl)-N-(5-methoxy-4-pyrimidinyl)-1-piperidinepropanaminefumarate] | < 10 nM
26 | C1=C(c2cccc3ccccc23)CCN(CCCNc2cccc3ccccc23)C1 [Example 39, 3,6-dihydro-N-(1-naphthalenyl)-4-(1-naphthalenyl)-1(2H)-pyridinepropanamine fumarate] | < 10 nM
27 | COc1ccccc1NCCCN1CC=C(c2cccc3ccccc23)CC1 [Example 40, 3,6-dihydro-N-(2-methoxyphenyl)-4-(1-naphthalenyl)-1-(2H)-pyridinepropanamine fumarate] | < 10 nM
28 | Clc1cccc(NCCCN2CC=C(c3cccc4ccccc34)CC2)c1 [Example 41, 3,6-dihydro-N-(3-chlorophenyl)-4-(1-naphthalenyl)-1(2H)-pyridinepropanamine fumarate] | < 100 nM
29 | FC(F)(F)c1cccc(NCCCN2CC=C(c3cccc4ccccc34)CC2)c1 [Example 42, 3,6-dihydro-N-(3-trifluoromethylphenyl)-4-(1-naphthalenyl)-1(2H)-pyridinepropanamine fumarate] | < 100 nM
